The values that follow are results of earlier work, collected in US20240390265A1, “FORMULATIONS FOR TRANSDERMAL ADMINISTRATION OF ACTIVE AGENTS” (DYVE BIOSCIENCES, INC., priority 2022, published 2024).

As a reminder, the IC50 is the midpoint of a concentration-inhibition curve.

In series [1] the test system is KRAS G12D mutant tumor cells.
Series [2] deals with tumor models harboring KRAS G12D mutations.
For series [3], the target named is T1, BRAF (Homo sapiens, UniProt P15056). Conditions: read-out: IC50 (B-Raf inhibitor).
Target sequence in this assay (P15056 2-766 limits assumed): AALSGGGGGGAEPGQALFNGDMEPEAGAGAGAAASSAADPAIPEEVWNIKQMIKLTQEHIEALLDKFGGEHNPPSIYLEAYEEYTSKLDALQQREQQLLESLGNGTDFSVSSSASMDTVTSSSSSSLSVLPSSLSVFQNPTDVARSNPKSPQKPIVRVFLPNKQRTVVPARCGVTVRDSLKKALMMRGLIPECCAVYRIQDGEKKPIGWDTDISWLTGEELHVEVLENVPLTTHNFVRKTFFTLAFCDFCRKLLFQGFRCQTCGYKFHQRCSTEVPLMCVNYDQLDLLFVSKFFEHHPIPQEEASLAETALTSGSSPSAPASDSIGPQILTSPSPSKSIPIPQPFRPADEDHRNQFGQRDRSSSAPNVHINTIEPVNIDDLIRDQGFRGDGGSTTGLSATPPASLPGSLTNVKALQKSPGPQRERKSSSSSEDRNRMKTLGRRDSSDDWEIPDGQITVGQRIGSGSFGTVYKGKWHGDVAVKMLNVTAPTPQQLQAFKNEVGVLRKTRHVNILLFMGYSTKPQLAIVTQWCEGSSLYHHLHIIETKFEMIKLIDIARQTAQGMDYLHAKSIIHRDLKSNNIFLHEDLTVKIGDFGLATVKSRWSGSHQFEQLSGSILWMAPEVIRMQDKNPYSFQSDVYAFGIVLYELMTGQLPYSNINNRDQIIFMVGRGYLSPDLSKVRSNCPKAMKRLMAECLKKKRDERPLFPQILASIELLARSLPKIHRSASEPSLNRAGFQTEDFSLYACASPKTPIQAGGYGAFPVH
For series [4], the target named is T1, BRAF.
Target sequence in this assay (P15056 whole entry): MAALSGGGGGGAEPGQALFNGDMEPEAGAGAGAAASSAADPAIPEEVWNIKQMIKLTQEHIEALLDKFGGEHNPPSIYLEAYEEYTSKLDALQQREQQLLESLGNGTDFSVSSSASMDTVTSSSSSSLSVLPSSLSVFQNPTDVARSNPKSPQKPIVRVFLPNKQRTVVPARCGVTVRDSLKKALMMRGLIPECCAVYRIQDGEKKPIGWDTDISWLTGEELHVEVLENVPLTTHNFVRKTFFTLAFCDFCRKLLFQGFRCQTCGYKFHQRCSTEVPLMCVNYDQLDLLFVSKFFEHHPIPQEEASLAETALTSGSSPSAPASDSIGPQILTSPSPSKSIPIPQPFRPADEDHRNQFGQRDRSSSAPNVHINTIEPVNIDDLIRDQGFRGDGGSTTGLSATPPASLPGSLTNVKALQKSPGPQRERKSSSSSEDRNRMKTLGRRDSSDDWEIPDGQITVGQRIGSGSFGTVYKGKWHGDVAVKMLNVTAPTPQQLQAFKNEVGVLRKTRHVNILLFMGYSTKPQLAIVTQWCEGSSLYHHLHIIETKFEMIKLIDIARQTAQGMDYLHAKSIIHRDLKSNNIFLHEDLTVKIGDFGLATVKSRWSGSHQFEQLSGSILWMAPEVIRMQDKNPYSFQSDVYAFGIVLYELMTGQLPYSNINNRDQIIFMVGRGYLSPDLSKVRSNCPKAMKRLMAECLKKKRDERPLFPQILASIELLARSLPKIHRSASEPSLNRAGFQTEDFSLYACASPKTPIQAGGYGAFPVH
For series [5] the following is noted: in vivo.
The target in the next series is CRAF (Homo sapiens, UniProt P04049).
For series [6], the system named is panel of 456 human kinases.
The test system of series [7] is cell line and primary human tumor derived xenograft models. Conditions: at well-tolerated doses.

Chain of CRAF (P04049 whole entry): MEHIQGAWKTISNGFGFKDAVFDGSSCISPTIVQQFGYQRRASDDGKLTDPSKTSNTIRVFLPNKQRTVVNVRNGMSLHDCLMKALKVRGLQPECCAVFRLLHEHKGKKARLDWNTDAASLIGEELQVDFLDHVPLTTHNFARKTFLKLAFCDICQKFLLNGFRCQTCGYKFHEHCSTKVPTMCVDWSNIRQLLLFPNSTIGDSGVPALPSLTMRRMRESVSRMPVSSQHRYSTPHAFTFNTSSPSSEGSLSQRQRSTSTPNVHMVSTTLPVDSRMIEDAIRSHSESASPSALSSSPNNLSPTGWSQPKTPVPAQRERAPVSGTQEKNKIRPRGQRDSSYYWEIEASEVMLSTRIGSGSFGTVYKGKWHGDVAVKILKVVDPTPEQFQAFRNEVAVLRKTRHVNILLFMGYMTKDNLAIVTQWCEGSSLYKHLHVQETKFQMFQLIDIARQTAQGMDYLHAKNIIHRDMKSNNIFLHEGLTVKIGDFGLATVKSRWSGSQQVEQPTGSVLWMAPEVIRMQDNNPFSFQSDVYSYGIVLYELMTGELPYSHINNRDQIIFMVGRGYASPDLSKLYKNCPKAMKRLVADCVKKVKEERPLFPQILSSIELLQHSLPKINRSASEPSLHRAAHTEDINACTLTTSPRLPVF

Take `C#Cc1c(F)ccc2cc(O)cc(-c3ncc4c(N5CC6CCC(C5)N6)nc(OC[C@@]56CCCN5C[C@H](F)C6)nc4c3F)c12` [MRTX1133]: in series [1], the “activity in cellular assays” value is recorded as “single digit nanomolar”. For the same molecule, the “in vivo efficacy in tumor models harboring KRAS G12D mutations” value in series [2] is recorded as “marked in vivo efficacy”.
Take `Cc1ccc2c(Nc3cccc(OC(F)(F)F)c3)nccc2c1Nc1ncccc1-c1ncnc2nc[nH]c12` [LUT014, 6-methyl-5-N-[3-(7H-purin-6-yl)pyridin-2-yl]-1-N-[3-(trifluoromethoxy)phenyl]isoquinoline-1,5-diamine]: the IC50 on BRAF [3] was 11.7 nM.
As to `Cc1ccc(NC(=O)c2ccnc(C(F)(F)F)c2)cc1-c1cc(OCCO)nc(N2CCOCC2)c1` [Naporafenib], the “concentrations inhibiting BRAF kinase activity” value at BRAF [4] was “picomolar”. The oral bioavailability entry in series [5] is “orally bioavailable”. For the same molecule, the “concentrations inhibiting CRAF kinase activity” value on CRAF was “picomolar”. Also, in series [6], the “selectivity against a panel of 456 human kinases” value is listed as “high degree of selectivity”. Besides, in series [7], the “effect on tumors in xenograft models” value was “tumor regression”.
